4 molecules from patent US20210308270A1, “SYSTEMS AND METHODS FOR INTRACELLULAR DELIVERY VIA NON-CHARGED SEQUENCE-DEFINED CELL-PENETRATING OLIGOMERS” (priority 2018, published 2021) can be followed below.

For test [1], the system named is HeLa cells. The experiment in a line: Live-cell confocal microscopy and time-lapse imaging. Type of test: cell-based, human. The method, then:
Live-Cell confocal microscopy: 70,000 HeLa cells/chamber were plated in a 4-chamber 35-mm glass-bottom microwell dish ([…]) and cultured at 37° C. for 20-24 hrs. […] For co-localization experiments, cells were incubated with fluorescein conjugates along with 150 nM Transferrin-Alexa Fluor 647, or 150 μM Dextran-Alexa Fluor 647 for 1 hr at 37° C. Cells were gently washed 3 times with PBS, and FluoroBrite DMEM Media supplemented with 10% FBS was added to each chamber for imaging. Images were taken on a Zeiss LSM880 live-cell confocal/multiphoton inverted microscope, equipped with a 63× oil objective, with 488-nm and 633-nm lasers enabled for fluorescein and Transferrin-Alexa Fluor 647/Dextran-Alexa Fluor 647, respectively. Images were processed using Fiji software. Time-lapse live-cell imaging: 70,000 HeLa cells/chamber were plated in a 4-chamber 35-mm glass-bottom microwell dish ([…]) and cultured at 37° C. for 20-24 hrs. […] Images were taken on a Zeiss LSM880 live-cell confocal/multiphoton inverted microscope, equipped with a 63× oil objective, with 488-nm laser enabled for fluorescein. Images were processed using Fiji software.

The test system of test [2] is Listeria monocytogenes DP-L1942. The experiment in a line: In vitro intracellular infection assay in J774 cells. Type of test: cell-based. The method, then:
In vitro Intracellular Infection Assay: 100,000 cells/well J774 cells in DMEM supplemented with 10% FBS without pen-strep, referred to as normal growth media, were plated in a 24-well plate and incubated for 20-24 hrs before use. Listeria monocytogenes DP-L1942 strain was taken from an exponentially growing culture (OD600 of ˜0.5) and washed with 1×PBS pH 7.4. Macrophages were infected with 200,000 bacteria in normal growth media to achieve an initial infection of approximately two bacteria per cell (MOI=2). The cells were washed twice with PBS at 30 mins after infection and supplemented with normal growth media. At 1-hr post infection, gentamicin (50 μg/ml) was added to eliminate all extracellular bacteria. The cells were then washed twice with PBS after 30 mins of incubation and supplemented with normal growth media. At 2-hr post infection, 30 μM of CPOT-vancomycin conjugates were added to the infected cells and incubated for 4 hrs. At the end of the incubation period, macrophages were washed twice with PBS, and the cells were lysed with 0.1% Triton-X in PBS. The cell lysate was diluted 10× in Brain Heart Infusion (BHI) broth and plated in a 96-well plate. The plate was incubated at 37° C. with agitation. The growth curve kinetics were generated from the absorbance measurements at 600 nm taken every 5 mins for 14 hrs.

For test [3], the system named is HeLa cells. The experiment in a line: Cellular uptake of fluorescein conjugates by flow cytometry, HeLa. Type of test: cell-based, human. The protocol: (§1) After the incubation, cells were washed with PBS and incubated with 200 μL of Trypsin EDTA at 37° C. for 3-5 mins. 1 mL of DMEM with 10% FBS was then added to quench the trypsin. […] Results were analyzed by FlowJo software.
Dose-dependent uptake: The standard uptake procedure was followed, except that cells were treated with the labeled oligoTEAs at 0.5 μM to 5 μM. All other conditions remained the same.
Uptake kinetics study: The standard uptake procedure was followed, except that cells were treated with fluorescein-PEO^2-B at 2.5 μM for 15-120 mins (minutes). After the incubation, the plate was cells were washed with PBS and incubated with 200 μL of Trypsin EDTA at 37° C. for 3-5 mins. All other conditions remained the same.
(§2) Mechanism of uptake: The standard uptake procedure was followed with the following changes for each mechanistic condition. Readings were taken on a FACSAria™ Fusion flow cytometry analyzer (Becton Dickinson).
Uptake with and without serum: Prior to treatment, cells were washed with PBS. Cells were then incubated with fluorescein conjugates in either DMEM with 10% FBS or Opti-MEM at 37° C. for 1 hr. Following treatment, cells were washed with PBS before addition of Trypsin EDTA.
Pretreatment with heparin sulfate: Prior to treatment, fluorescein conjugates were incubated with different concentrations of heparin sulfate and DMEM with 10% FBS in Eppendorf® tubes for 30 mins at 37° C. Cells were washed with PBS, and incubated with the treatment solutions at 37° C. for 1 hr. Following treatment, cells were washed with PBS once more before addition of Trypsin EDTA.
(§3) Temperature dependence: Prior to treatment, fluorescein conjugates were incubated with DMEM with 10% FBS in Eppendorf® tubes for 30 mins at 37° C. or 4° C. Cells were washed with warm (37° C.) or cool (4° C.) PBS for 5 mins. Pre-warmed or pre-cooled fluorescein conjugate solution was then added, and cells were incubated at 37° C. or refrigerated at 4° C. for 1 hr. Following treatment, cells were washed with PBS before addition of Trypsin EDTA.
(§4) Uptake with and without NaN3 and 2-deoxy-D-glucose (DOG): Prior to treatment, cells were washed with PBS. Cells were then incubated with 10 mM NaN3 and 25 mM DOG in DMEM with 10% FBS at 37° C. for 1 hr. Fluorescein conjugates were added, and cells were incubated at 37° C. for another hour. Following treatment, cells were washed with PBS before addition of Trypsin EDTA.
Uptake with and without chlorpromazine (CPM): Prior to treatment, cells were washed with PBS. Cells were then incubated with 5 μg/mL (or 15.7 μM) CPM in DMEM with 10% FBS at 37° C. for 1 hr. Fluorescein conjugates were added, and cells were incubated at 37° C. for another hour. Following treatment, cells were washed with PBS before addition of Trypsin EDTA. […]

The next test relates to SKOV-3 cells. The experiment in a line: Cellular uptake of fluorescein conjugates by flow cytometry, SKOV-3. The test is classed as cell-based, human. The protocol:
as §1, §2, §3, §4
(§5) Uptake with and without chlorpromazine (CPM): Prior to treatment, cells were washed with PBS. […]
On the technique in general: In flow cytometry, cells or beads pass a laser one at a time.

The next test has as its system HEK293 cells. The experiment in a line: Cellular uptake of fluorescein conjugates by flow cytometry, HEK293. The test is classed as cell-based, human. The protocol: as §1, §2, §3, §4, §5
For a further test, the system named is J774 cells. The experiment in a line: Uptake of fluorescein cargo by oligoTEAs, flow cytometry, J774. The note with it: 5 μM, 1 hr. The test is classed as cell-based. The method, then:
(§6) After the incubation, cells were washed with PBS. […] Results were analyzed by FlowJo software.

The next test has as its system MC-3T3-E1 cells. The experiment in a line: Uptake of fluorescein cargo by oligoTEAs, flow cytometry, MC-3T3-E1. Type of test: cell-based. The note with it: 5 μM, 1 hr. The protocol: as §6

On to fluorescein acid, for which, in the test with HeLa cells [1] (2.5 μM, trypan blue present, 60 mins), the “internalization in time-lapse live cell imaging” value is “no internalization”.

By inhibition is commonly meant the drop in the measured response relative to a control, in per cent. In the case of `O=C(O)c1cn(C2CC2)c2cc(N3CCNCC3)c(F)cc2c1=O` [Ciprofloxacin], the inhibition at 30 µM in test [2] (Listeria monocytogenes, DPL1942, J774, 4 h, read-out: inhibition of bacteria growth) is above 80%.

Consider “Ac-RRRRRRRRRK-Am (Ac-RRRRRRRRRK-NH2) [R9, widely used cationic CPP, purchased from GenScript]”, for which the “temperature dependence of uptake, 4° C. vs 37° C.” value in the test with HeLa cells [3], with SKOV-3 cells and in the test on HEK293 cells was “weaker dependence on temperature” in each case. For the same molecule, the “increase of uptake in the absence of serum” value with HeLa cells [3] (Opti-MEM vs DMEM with 10% FBS) worked out at 2 fold. Also, the “effect of endocytosis inhibitors on uptake” value is “dependence on clathrin in HeLa cells and macropinocytosis in both HEK293 and HeLa cells” in the test on HeLa cells [3] (chlorpromazine (clathrin), filipin III (caveolae), cytochalasin D (macropinocytosis)); “macropinocytosis in both HEK293 and HeLa cells” with HEK293 cells (chlorpromazine, filipin III, cytochalasin D). Also, the “decrease of uptake in the presence of heparin sulfate” value with HeLa cells [3] (conjugate pretreated with heparin sulfate 30 mins) worked out at 6 fold. Besides, the subcellular distribution result in the test with HeLa cells [1] (5 μM fluorescein conjugate, 1 hr, 63×) was “primarily as punctate spots”. The “trend of uptake of fluorescein cargo” value in the test on J774 cells and in the test on MC-3T3-E1 cells was “R9 (PEG-Bu)4>(BDT-PEG)4>(BDT-PEG4)4˜(PEG-PEG)4” in each case.

As for `CN[C@H](CC(C)C)C(=O)N[C@H]1C(=O)N[C@@H](CC(N)=O)C(=O)N[C@H]2C(=O)N[C@H]3C(=O)N[C@H](C(=O)N[C@H](C(=O)O)c4cc(O)cc(O)c4-c4cc3ccc4O)[C@H](O)c3ccc(c(Cl)c3)Oc3cc2cc(c3O[C@@H]2O[C@H](CO)[C@@H](O)[C@H](O)[C@H]2O[C@H]2C[C@](C)(N)[C@H](O)[C@H](C)O2)Oc2ccc(cc2Cl)[C@H]1O` [vancomycin], in test [2] (30 μM, 4 hrs treatment, 14th hour of growth curve), the “inhibition of bacteria growth” value is listed as “little to no effect on bacteria growth”.
